# According to patent publication US20090022824A1, “Pesticidal formulations” (Akhil Technologies Pty Ltd, priority 2005, published 2009):
# System: root-knot nematode (Meloidogyne javanica)
# Assay: Efficacy to control root-knot nematode, pot trial with tomato plants
# Type: in vivo
# Conditions: tomato cv. Tiny Tim, relative to untreated control
# Experimental: The efficacy of pesticidal formulations in the control of root-knot nematode (Meloidogyne javanica) as a pre-plant soil pesticidal formulation was investigated.
# The root-knot nematode colonies were prepared with 1 kg of river sand placed in 100 mm diameter pots. The sand was inoculated with 10,000 eggs of root-knot nematode (M. javanica). The eggs were harvested from the roots of infected tomato plants (Lycopersicon esculentum cv. Tiny Tim) by washing in a 1% bleach solution for 3 minutes, collecting the […] on a 25 μm sieve and rinsing in running tap water for 2 minutes.
# The appropriate treatment was applied to each pot in 5 mL of water using five 1 mL injections spaced evenly around the pot. Each dilution of the pesticidal formulation was applied using a pipette so that the tip of the pipette was 20 mm below the soil surface. The pots were allowed to stand for 7 days before planting a three week old tomato plant (c.v. Tiny Tim) in each pot.
# Six weeks after planting the tomatoes were harvested. The tops of the plants were removed and dried for 4 days at 70° C. before being weighed. […] The juvenile nematodes were collected on a 25 μm sieve, backwashed and counted using a compound microscope at 40× magnification. […]
compound,measurement,setting,value
CNC(=S)[S-].[Na+] [metham sodium],juvenile root-knot nematodes extracted from the roots,"six weeks after planting, FIG. 2",significantly fewer
same,galls on the root system of tomato plants (gall rating),"soil inoculated with 10,000 eggs, harvested six weeks after planting, FIG. 1",significantly fewer
